Structures can show the parent of a compound that is named as a salt.

The source of these data is patent publication US8440654B2, “Thieno- and furo-pyrimidine modulators of the histamine H4 receptor” (Janssen Pharmaceutica NV, priority 2007, dated 2013).

The target of the test is T1, human histamine H4 receptor (Homo sapiens, UniProt Q9H3N8).
T1 construct: expressed in transfected cells; host or cells: SK-N-MC cells or COS7 cells, transiently transfected with pH4R; membrane preparation
T1 sequence (Q9H3N8 whole entry): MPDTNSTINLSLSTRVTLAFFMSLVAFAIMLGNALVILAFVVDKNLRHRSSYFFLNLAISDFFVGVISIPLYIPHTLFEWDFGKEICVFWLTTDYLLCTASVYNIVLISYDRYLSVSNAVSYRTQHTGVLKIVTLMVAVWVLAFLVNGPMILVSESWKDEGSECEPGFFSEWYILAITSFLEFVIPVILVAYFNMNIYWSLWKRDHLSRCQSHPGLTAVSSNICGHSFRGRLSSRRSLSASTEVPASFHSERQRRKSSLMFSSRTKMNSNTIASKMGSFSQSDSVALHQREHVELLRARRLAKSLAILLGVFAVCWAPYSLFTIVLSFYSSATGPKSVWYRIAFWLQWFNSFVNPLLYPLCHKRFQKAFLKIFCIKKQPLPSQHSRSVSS
In words: Binding Assay on Recombinant Human Histamine H4 Receptor. The note with it: competition binding with 3H-histamine, membranes of SK-N-MC or COS7 cells transfected with human H4R; average of results obtained. How it is done: Biological Methods: Binding Assay on Recombinant Human Histamine H4 Receptor.
SK-N-MC cells or COS7 cells were transiently transfected with pH4R and grown in 150 cm^2 tissue culture dishes. Cells were washed with saline solution, scraped with a cell scraper and collected by centrifugation (1000 rpm, 5 min). Cell membranes were prepared by homogenization of the cell pellet in 20 mM Tris-HCl with a polytron tissue homogenizer for 10 sec at high speed. Homogenate was centrifuged at 1000 rpm for 5 min at 4° C. The supernatant was then collected and centrifuged at 20,000×g for 25 min at 4° C. The final pellet was resuspended in 50 mM Tris-HCl. Cell membranes were incubated with ^3H-histamine (5-70 nM) in the presence or absence of excess histamine (10,000 nM). Incubation occurred at room temperature for 45 min. Membranes were harvested by rapid filtration over Whatman GF/C filters and washed 4 times with ice-cold 50 mM Tris HCl. Filters were then dried, mixed with scintillant and counted for radioactivity. SK-N-MC or COS7 cells expressing human histamine H4 receptor were used to measure the affinity of binding of other compounds and their ability to displace ^3H-ligand binding by incubating the above-described reaction in the presence of various concentrations of inhibitor or compound to be tested. For competition binding studies using ^3H-histamine, K values were calculated, based on an experimentally determined KD value of 5 nM and a ligand concentration of 5 nM, according to Y.-C.
One may read the Ki as a dissociation constant, usually derived from enzyme kinetics or from competition with a known ligand. On to `CN[C@H]1CCN(c2nc(N)nc3c4c(oc23)CCC(F)(F)C4)C1` [Example 122, 8,8-Difluoro-4-[(3S)-3-(methylamino)pyrrolidin-1-yl]-6,7,8,9-tetrahydro[1]benzofuro[3,2-d]pyrimidin-2-amine trifluoroacetate], for which the Ki worked out at 7 nM.

As to `CN1CCN(c2nc(N)nc3c4c(oc23)CCC(F)(F)C4)CC1` [Example 123, 8,8-Difluoro-4-(4-methylpiperazin-1-yl)-6,7,8,9-tetrahydro[1]benzofuro[3,2-d]pyrimidin-2-amine trifluoroacetate], the Ki is 15 nM.

As to `Nc1nc(N2C[C@H]3CCCN[C@H]3C2)c2oc3c(c2n1)CC(F)(F)CC3` [Example 124, 4-((R,R)-octahydropyrrolo[3,4-b]pyridin-6-yl)-8,8-difluoro-6,7,8,9-tetrahydro[1]benzofuro[3,2-d]pyrimidin-2-amine trifluoroacetate], the Ki turned out to be 33 nM.

With `CN(CCN)c1nc(N)nc2c3c(oc12)CCC(F)(F)C3` [Example 125, N^4-(2-Aminoethyl)-8,8-difluoro-N^4-methyl-6,7,8,9-tetrahydro[1]benzofuro[3,2-d]pyrimidine-2,4-diamine (free amine)], the Ki was 150 nM.

In the case of `Nc1nc(N2CC[C@H](N)C2)c2oc3c(c2n1)CC(F)(F)CC3` [Example 126, 4-[(3S)-3-Aminopyrrolidin-1-yl]-8,8-difluoro-6,7,8,9-tetrahydro[1]benzofuro[3,2-d]pyrimidin-2-amine hydrochloride], the Ki was found to be 6.1 nM.

Take `Nc1nc(N2CC(N)C2)c2oc3c(c2n1)CC(F)(F)CC3` [Example 127, 4-(3-Aminoazetidin-1-yl)-8,8-difluoro-6,7,8,9-tetrahydro[1]benzofuro[3,2-d]pyrimidin-2-amine hydrochloride]: the Ki stood at 64 nM.

On to `NCCNc1nc(N)nc2c3c(sc12)CCC(F)(F)C3` [Example 128, N^4-(2-Aminoethyl)-8,8-difluoro-6,7,8,9-tetrahydro[1]benzothieno[3,2-d]pyrimidine-2,4-diamine hydrochloride], for which the inhibition constant Ki is 150 nM.

As to `Nc1nc(N2C[C@H]3CNC[C@H]3C2)c2sc3c(c2n1)CC(F)(F)CC3` [Example 129, 8,8-Difluoro-4-[(3aR,6aS)-hexahydropyrrolo[3,4-c]pyrrol-2(1H)-yl]-6,7,8,9-tetrahydro[1]benzothieno[3,2-d]pyrimidin-2-amine (free amine)], the inhibition constant Ki amounted to 680 nM.

With `Nc1nc(N2CCCNCC2)c2oc3c(c2n1)CC(F)(F)CC3` [Example 130, 4-(1,4-Diazepan-1-yl)-8,8-difluoro-6,7,8,9-tetrahydro[1]benzofuro[3,2-d]pyrimidin-2-amine (free amine)], the Ki was determined as 8.2 nM.

Regarding `CC1(C)CCc2sc3c(N4CCCNCC4)nc(N)nc3c2C1` [Example 132, 4-(1,4-Diazepan-1-yl)-8,8-dimethyl-6,7,8,9-tetrahydro[1]benzothieno[3,2-d]pyrimidin-2-amine trifluoroacetate], the Ki worked out at 35 nM.

Turning to `CN(CCN)c1nc(N)nc2c3c(sc12)CCC(C)(C)C3` [Example 133, N^4-(2-Aminoethyl)-N^4,8,8-trimethyl-6,7,8,9-tetrahydro[1]benzothieno[3,2-d]pyrimidine-2,4-diamine trifluoroacetate], the Ki is 54 nM.

For the compound `CN[C@@H]1CCN(c2nc(N)nc3c4c(sc23)CCC(C)(C)C4)C1` [Example 134, 8,8-Dimethyl-4-[(3R)-3-(methylamino)pyrrolidin-1-yl]-6,7,8,9-tetrahydro[1]benzothieno[3,2-d]pyrimidin-2-amine hydrochloride], the Ki is 7.6 nM.

Consider `CN[C@H]1CCN(c2nc(N)nc3c4c(sc23)CCC(C)(C)C4)C1` [Example 135, 8,8-Dimethyl-4-[(3S)-3-(methylamino)pyrrolidin-1-yl]-6,7,8,9-tetrahydro[1]benzothieno[3,2-d]pyrimidin-2-amine hydrochloride], for which the Ki is 35 nM.

For the compound `CC1(C)CCc2sc3c(N4CC[C@@H](N)C4)nc(N)nc3c2C1` [Example 136, 4-[(3R)-3-Aminopyrrolidin-1-yl]-8,8-dimethyl-6,7,8,9-tetrahydro[1]benzothieno[3,2-d]pyrimidin-2-amine hydrochloride], the Ki was found to be 7.7 nM.

As for `CN[C@@H]1CCN(c2nc(N)nc3c4c(oc23)CCC(C)(C)C4)C1` [Example 137, 8,8-Dimethyl-4-[(3R)-3-(methylamino)pyrrolidin-1-yl]-6,7,8,9-tetrahydro[1]benzofuro[3,2-d]pyrimidin-2-amine hydrochloride], the Ki is 18 nM.

Turning to “(3R)-N-Methyl-1-(6,7,8,9- tetrahydro[1]benzo- thieno[3,2-d]pyrimidin-4- yl)pyrrolidin-3-amine [Example 30]”, the Ki was found to be 145 nM.
